Source: patent US10501493B2, “Broad spectrum antibiotics” (priority 2011, dated 2019)
pIC50: −log10 of the molar value. Converted amounts (≈) assume the structure as drawn. Where two headings read alike, the source gives them in different places.

Key:
[1] = system: E. col ATCC 25922 LepB(P84L); test: In vitro antimicrobial activity, MIC by broth micro-dilution; assay type: cell-based, E. coli; conditions: for MIC: Escherichia coli, ATCC25922, read-out: MIC class, E. col ATCC 25922 LepB(P84L)
Method: (§1) In vitro antimicrobial activity of each compound was determined by measuring minimal inhibitor concentrations (MICs) using the broth micro-dilution technique as approved by the Clinical and Laboratory Standards Institute (CLSI). The microbiological panel examined contains a number of bacterial species including E. coli MG1655, P. aeruginosa, S. aureus, and S. epidermidis. In addition, the panel includes previously described pseudo-isogenic strains of these four species (P. A. Smith et al. Chem Biol 2010, 1223-1231), in which a specific proline residue in SPase (called LepB in Gram-negative organisms an SpsB in Gram-positive organisms) has been mutated to a different amino acid. The resulting strains have increased susceptibility to the arylomycin class of antibiotics. Analysis of the strains lacking this proline residue will increases the dynamic range of the assay, and comparison of the sensitivities of the isogenic pairs provides ongoing confirmation that the activity gained through derivatization is specific to the inhibition of SPase. Briefly, bacterial streaks were grown on Mueller Hinton Agar II (Difco™) with or without 5% lysed horse blood for a period of 24 hours at either 35° C. or 28° C. Bacterial colonies were suspended in cation adjusted Mueller Hinton broth and diluted to a final concentration of 1*10^7 colony forming units/ml. Two-fold serial dilutions of each compound were arrayed into 96-well plates (100 μl final volume per well) and 5 ul of the bacterial suspension will be added. […] MICs were periodically checked plating serial dilutions of MIC wells and quantitatively determining viable colonies.

S. aureus SPase = biological target: T1, S. aureus SPase (Staphylococcus aureus, UniProt P0A070); test: Enzymatic fluorogenic substrate cleavage assay for IC50; assay type: biochemical
T1 construct: Full length His-tagged S. aureus SPase protein was expressed similarly; His-tag; made in house; host or cells: E. coli BL21(DE3)
Method: (§2) Full length His-tagged E. coli SPase proteins were expressed in E. coli BL21(DE3) containing the plasmid pET23-lepB, P. A. Smith et al. Chem Biol 2010, 1223-1231. Briefly, saturated overnight cultures grown in 20 ml of Luria-Bertani medium supplemented with ampicillin were subcultures into 1.5 L of Luria-Bertani, and shaken at 37° C. until an optical density at 600 nm of 0.4-0.5 was achieved. Protein expression was induced with Isopropyl β-D-1-thiogalactopyranoside (ITPG) at a final concentration of […], and purified using nickel affinity chromatography. Full length His-tagged S. aureus SPase protein was expressed similarly from E. coli BL21(DE3) containing the plasmid pCDF1-SaSpsB or pCDF1-SaSpsB(P29S) and purified similarly to the E. coli protein with the following exceptions. SPase protein was solubilized using 300 mM NaCl, 20 mM Tris pH 8.06, 5 mM Imidazole, 10% glycerol, 1% Triton X-100, prior to purification in Ni-NTA Superflow resin and resin bound protein was washed in a similar buffer containing 1% Elugent in place of Triton X-100 prior to protein eluted in wash buffer supplemented with 300 mM imidazole. Protein purify was judged to exceed 95% by visual inspection of SDS-PAGE followed by Comassie staining. All protein concentrations were determined by BCA assay.
(§3) In addition to the equilibrium binding assays, compound activity is also characterized by measuring inhibition of E. coli and S. aureus substrate cleavage reactions using fluorogenic peptides developed at RQx Pharmaceuticals. Briefly, two fluorogenic peptide substrates (decanoyl-LSSPA Y^NO2 A ? ADK^abzPD (SEQ ID NO: 1) and decanyol-LTPTAY^NO2 A ? ASKK^abzDD (SEQ ID NO: 2)) have been synthesized, where abz is the fluorescence donor 2-aminobenzamide, YNO2 is the fluorescence acceptor 3-nitrotyrosine, and the cleavage site is indicated with an arrow. These substrates are processed with a second order rate constant (Kcat/KM) of 10^5 M^−1s^−1 for E. coli and S. aureus SPase enzymes, and cleavage results in a greater than 10-fold increase in fluorescence signal (excitation at 314 nm, emission at 416 nm) as measured using a SpectraMax M2 fluorescence microplate reader. Two-folder serial dilutions of compound are prepared in cleavage reaction buffer consisting of: 50 mM Tris-HCl pH 8.0, 100 mM NaCl, 10% glycerol, 1 mM EDTA, detergent (1% NP-40 or 0.1% Elugent™ for E. coli LepB or S. aureus SpsB respectively) and either 2.5 nM of E. coli SPase enzyme or 10 nM of S. aureus SPase enzyme. 40 μl aliquots of the compound dilution series in the protein/buffer solution is transferred to black 384-well polypropylene plates, and 10 μl of fluorogenic peptide at a concentration of 100 μM is added to initiate the reaction. The increase in fluorescence, corresponding to substrate cleavage, is monitored continuously at room temperature for 30 minutes and initial reaction rates are calculated based in the linear increase in fluorescence from the initial 30 minutes of the reaction. Reaction rates are plotted as a function of compound concentration, and IC50 values are determined nonlinear regression analysis (SoftMax® Pro v5.4) of the sigmoidal dose-response curve.

E. coli SPase = biological target: T2, E. coli SPase (Escherichia coli, UniProt P00803); test: as above; assay type: biochemical
T2 construct: Full length His-tagged E. coli SPase proteins were expressed in E. coli BL21(DE3); His-tag; made in house; host or cells: E. coli BL21(DE3)
Method: as §2, §3

E. coli ATCC 25922 = test: In vitro antimicrobial activity, MIC by broth micro-dilution; assay type: cell-based; conditions: for MIC: Escherichia coli, ATCC25922, read-out: MIC class, E. coli ATCC 25922
Method: as §1

S. epidermidis RP62A = test: as above; assay type: cell-based; conditions: for MIC: Staphylococcus epidermidis, RP62A, read-out: MIC class, S. epidermidis RP62A
Method: as §1

S. pneumoniae D39 = test: as above; assay type: cell-based; conditions: for MIC: Streptococcus pneumoniae, D39, read-out: MIC class, S. pneumoniae D39
Method: as §1

[2] = system: S. aureus NCTC-8325 SpsB(P295); test: as above; assay type: cell-based; conditions: for MIC: Staphylococcus aureus, NCTC8325, read-out: MIC class, S. aureus NCTC-8325 SpsB(P295)
Method: as §1

S. aurues NCTC-8325 = test: as above; assay type: cell-based, S. aureus; conditions: for MIC: Staphylococcus aureus, NCTC8325, read-out: MIC class, S. aurues NCTC-8325
Method: as §1

Compound | MIC [1] | pIC50 (S. aureus SPase) | pIC50 (E. coli SPase) | MIC (E. coli ATCC 25922) | MIC (S. epidermidis RP62A) | MIC (S. pneumoniae D39) | MIC [2] | MIC class, E. col ATCC 25922 LepB(P84L) [1] | pIC50 (S. aureus SPase; fluorogenic peptide cleavage, read-out: IC50 class S. aureus SPase) | pIC50 (E. coli SPase; fluorogenic peptide cleavage, read-out: IC50 class E. coli SPase) | MIC class, E. coli ATCC 25922 (E. coli ATCC 25922) | MIC class, S. epidermidis RP62A (S. epidermidis RP62A) | MIC class, S. pneumoniae D39 (S. pneumoniae D39) | MIC class, S. aureus NCTC-8325 SpsB(P295) [2] | MIC (S. aurues NCTC-8325) | MIC class, S. aurues NCTC-8325 (S. aurues NCTC-8325; S. aurues NCTC-8325)
CCCCCCCCCCCCCCCC(=O)N(C)[C@H](CO)C(=O)N[C@H](Cc1ccccc1)C(=O)NCC(=O)N(C)[C@@H]1C(=O)N[C@@H](C)C(=O)N[C@H](C(=O)O)Cc2ccc(O)c(c2)-c2cc1ccc2O [Compound 39] | < 8 µg/mL | > 6.00 | > 6.00 | > 64 µg/mL | 16 to 64 µg/mL (≈ 16.7 to 66.9 µM) | 16 to 64 µg/mL (≈ 16.7 to 66.9 µM) | > 64 µg/mL |  |  |  |  |  |  |  |  | 
CCCCCCCCCCCCCCCC(=O)N(C)[C@H](CO)C(=O)N[C@H](CCc1ccccc1)C(=O)NCC(=O)N(C)[C@@H]1C(=O)N[C@@H](C)C(=O)N[C@H](C(=O)O)Cc2ccc(O)c(c2)-c2cc1ccc2O [Compound 41] | > 64 µg/mL | > 6.00 | > 6.00 | > 64 µg/mL | < 8 µg/mL | > 64 µg/mL | > 64 µg/mL |  |  |  |  |  |  |  |  | 
CCCCCCCCCCCCCCCC(=O)N(C)[C@H](CN)C(=O)N[C@H](C)C(=O)NCC(=O)N(C)[C@@H]1C(=O)N[C@@H](C)C(=O)N[C@H](C(=O)O)Cc2ccc(O)c(c2)-c2cc1ccc2O [Compound 52] |  |  |  |  |  |  |  | a (MIC >64 μg/ml) | > 6.00 | 5.00 to 6.00 | a (MIC >64 μg/ml) | b (MIC 16-64 μg/ml) | b (MIC 16-64 μg/ml) | b (MIC 16-64 μg/ml) |  | 
CCCCCCCCCCCCCCCC(=O)N[C@H](CCN)C(=O)N[C@H](C)C(=O)NCC(=O)N(C)[C@@H]1C(=O)N[C@@H](C)C(=O)N[C@H](C(=O)O)Cc2ccc(O)c(c2)-c2cc1ccc2O [Compound 53] | > 64 µg/mL | > 6.00 | 5.00 to 6.00 | > 64 µg/mL | 16 to 64 µg/mL (≈ 18.2 to 72.7 µM) | 16 to 64 µg/mL (≈ 18.2 to 72.7 µM) | > 64 µg/mL |  |  |  |  |  |  |  |  | 
CCCCCCCCCCCCCCCC(=O)N(C)[C@H](CO)C(=O)N[C@H](C)C(=O)NCC(=O)N(C)[C@@H]1C(=O)N[C@@H](C)C(=O)N[C@H](C(=O)NCCO)Cc2ccc(O)c(c2)-c2cc1ccc2O [Compound 54] | < 8 µg/mL | 5.00 to 6.00 | > 6.00 | > 64 µg/mL | < 8 µg/mL | < 8 µg/mL | 16 to 64 µg/mL (≈ 17.3 to 69.3 µM) |  |  |  |  |  |  |  |  | 
CCCCCCCCCCCCCCCC(=O)N(C)[C@H](CO)C(=O)N[C@H](C)C(=O)NCC(=O)N(C)[C@@H]1C(=O)N[C@@H](C)C(=O)N[C@H](C(=O)OCCN)Cc2ccc(O)c(c2)-c2cc1ccc2O [Compound 55] | 16 to 64 µg/mL (≈ 17.3 to 69.3 µM) | 5.00 to 6.00 | 5.00 to 6.00 | > 64 µg/mL | < 8 µg/mL | < 8 µg/mL | > 64 µg/mL |  |  |  |  |  |  |  |  | 
CCCCCCCCCCCCCCCC(=O)N(C)[C@H](CO)C(=O)N[C@H](C)C(=O)NCC(=O)N(C)[C@@H]1C(=O)N[C@@H](C)C(=O)N[C@H](C(=O)N[C@@H](C)CO)Cc2ccc(O)c(c2)-c2cc1ccc2O [Compound 56] | > 64 µg/mL | < 5.00 | 5.00 to 6.00 | > 64 µg/mL | < 8 µg/mL | 16 to 64 µg/mL (≈ 17.1 to 68.2 µM) | > 64 µg/mL |  |  |  |  |  |  |  |  | 
CCCCCCCCCCCCCCCC(=O)N(C)[C@H](CO)C(=O)N[C@H](C)C(=O)NCC(=O)N(C)[C@@H]1C(=O)N[C@@H](C)C(=O)N[C@H](C(=O)OC[C@H](C)N)Cc2ccc(O)c(c2)-c2cc1ccc2O [Compound 57] | 16 to 64 µg/mL (≈ 17.1 to 68.2 µM) | 5.00 to 6.00 | 5.00 to 6.00 | > 64 µg/mL | < 8 µg/mL | 16 to 64 µg/mL (≈ 17.1 to 68.2 µM) | > 64 µg/mL |  |  |  |  |  |  |  |  | 
CCCCCCCCCCCCCCCC(=O)N(C)C(CO)C(=O)N[C@H](C)C(=O)NCC(=O)N(C)[C@@H]1C(=O)N[C@@H](C)C(=O)NC(C(=O)NCC(=O)C(=O)N(C)C)Cc2ccc(O)c(c2)-c2cc1ccc2O (stereo partly shown) [Compound 59] | 16 to 64 µg/mL (≈ 16.1 to 64.4 µM) | 5.00 to 6.00 | > 6.00 | > 64 µg/mL | < 8 µg/mL | 16 to 64 µg/mL (≈ 16.1 to 64.4 µM) | > 64 µg/mL |  |  |  |  |  |  |  | > 64 µg/mL | 
CCCCCCCCCCCCCCCC(=O)N(C)[C@H](CO)C(=O)N[C@H](C)C(=O)NCC(=O)N(C)[C@@H]1C(=O)N[C@@H](C)C(=O)N[C@H](C(=O)NCC(=O)NS(C)(=O)=O)Cc2ccc(O)c(c2)-c2cc1ccc2O [Compound 60] | < 8 µg/mL | 5.00 to 6.00 | > 6.00 | > 64 µg/mL | < 8 µg/mL | < 8 µg/mL | > 64 µg/mL |  |  |  |  |  |  |  | > 64 µg/mL | 
CCCCc1ccc(-c2ccc(C(=O)N(C)[C@H](CO)C(=O)N[C@H](C)C(=O)N[C@@H](CCCCN)C(=O)N(C)[C@@H]3C(=O)N[C@@H](C)C(=O)N[C@H](C(=O)O)Cc4ccc(O)c(c4)-c4cc3ccc4O)cc2)cc1 [Compound 96] |  |  |  |  |  |  |  | b (MIC 16-64 μg/ml) |  |  | a (MIC >64 μg/ml) | b (MIC 16-64 μg/ml) | a (MIC >64 μg/ml) | a (MIC >64 μg/ml) |  | a (MIC >64 μg/ml)
CCCCCCc1ccc(C(=O)N(C)[C@H](CO)C(=O)N[C@H](C)C(=O)N[C@@H](CCCCN)C(=O)N(C)[C@@H]2C(=O)N[C@@H](C)C(=O)N[C@H](C(=O)O)Cc3ccc(O)c(c3)-c3cc2ccc3O)cc1 [Compound 97] | 16 to 64 µg/mL (≈ 17.7 to 70.9 µM) |  |  | > 64 µg/mL | 16 to 64 µg/mL (≈ 17.7 to 70.9 µM) | > 64 µg/mL |  |  |  |  |  |  |  |  | > 64 µg/mL | 
CCCCc1ccc(-c2ccc(C(=O)N[C@H](CO)C(=O)N[C@H](C)C(=O)N[C@@H](CCCCN)C(=O)N(C)[C@@H]3C(=O)N[C@@H](C)C(=O)N[C@H](C(=O)O)Cc4ccc(O)c(c4)-c4cc3ccc4O)cc2)cc1 [Compound 98] | < 8 µg/mL |  |  | > 64 µg/mL | 16 to 64 µg/mL (≈ 17.1 to 68.4 µM) | > 64 µg/mL |  |  |  |  |  |  |  |  | > 64 µg/mL | 
